Laboratory results reported in ChEMBL document CHEMBL5465560, “Selectivity Literature for EUbOPEN Chemogenomic Library” (2024).
Numbering of substitutions follows the chain as printed.

Legend:
Conditions in all cases: at 10 µM
[1] = molecular target: LIM domain kinase 1 (Homo sapiens) (UniProt P53667); experiment: Selectivity interaction (KinomeScan (DiscoverX)) EUB0000607a LIMK1
[2] = molecular target: Receptor-type tyrosine-protein kinase FLT3 (Homo sapiens) (UniProt P36888); experiment: (§1) Selectivity interaction (KinomeScan (DiscoverX)) EUB0000618a FLT3
[3] = test system: T1, Receptor-type tyrosine-protein kinase FLT3 (Homo sapiens), P36888 [D835H]; experiment: as §1
T1 sequence (whole entry): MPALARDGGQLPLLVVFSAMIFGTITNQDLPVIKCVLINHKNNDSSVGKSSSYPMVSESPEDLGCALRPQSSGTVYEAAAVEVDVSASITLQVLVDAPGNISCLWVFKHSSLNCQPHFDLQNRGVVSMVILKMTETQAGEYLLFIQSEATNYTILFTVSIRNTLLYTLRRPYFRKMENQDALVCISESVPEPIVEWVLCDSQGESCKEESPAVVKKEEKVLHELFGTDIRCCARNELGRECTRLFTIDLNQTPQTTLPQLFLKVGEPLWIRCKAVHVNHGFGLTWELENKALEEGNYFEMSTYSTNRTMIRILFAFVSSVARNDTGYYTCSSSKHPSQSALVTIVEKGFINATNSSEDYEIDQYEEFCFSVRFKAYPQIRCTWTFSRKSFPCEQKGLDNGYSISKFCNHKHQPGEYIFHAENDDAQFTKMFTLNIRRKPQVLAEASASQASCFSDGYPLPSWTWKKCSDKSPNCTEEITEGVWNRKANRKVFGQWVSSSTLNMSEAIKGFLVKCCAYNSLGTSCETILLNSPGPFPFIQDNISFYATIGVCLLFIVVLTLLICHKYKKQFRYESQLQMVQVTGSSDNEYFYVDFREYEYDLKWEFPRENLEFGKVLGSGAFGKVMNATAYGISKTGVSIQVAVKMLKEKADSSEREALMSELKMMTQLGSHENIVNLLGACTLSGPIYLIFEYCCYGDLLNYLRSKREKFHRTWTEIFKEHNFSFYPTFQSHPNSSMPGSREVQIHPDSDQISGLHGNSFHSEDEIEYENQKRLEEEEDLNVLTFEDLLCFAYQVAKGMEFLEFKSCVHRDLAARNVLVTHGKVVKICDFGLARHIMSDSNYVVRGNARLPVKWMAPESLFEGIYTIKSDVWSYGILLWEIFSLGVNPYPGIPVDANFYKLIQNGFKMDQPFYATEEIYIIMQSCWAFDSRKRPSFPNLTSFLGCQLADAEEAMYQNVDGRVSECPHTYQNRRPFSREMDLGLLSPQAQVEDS

[4] = test system: T2, Receptor-type tyrosine-protein kinase FLT3 (Homo sapiens), P36888 [D835Y]; experiment: as §1
T2 sequence (whole entry): T1 sequence (whole entry) with H835Y

[5] = test system: T3, Receptor-type tyrosine-protein kinase FLT3 (Homo sapiens), P36888 [R834Q]; experiment: as §1
T3 sequence (whole entry): T1 sequence (whole entry) with R834Q, H835D

Sequence of LIM domain kinase 1 (Homo sapiens) (P53667 whole entry, looked up, the tested form may be a part): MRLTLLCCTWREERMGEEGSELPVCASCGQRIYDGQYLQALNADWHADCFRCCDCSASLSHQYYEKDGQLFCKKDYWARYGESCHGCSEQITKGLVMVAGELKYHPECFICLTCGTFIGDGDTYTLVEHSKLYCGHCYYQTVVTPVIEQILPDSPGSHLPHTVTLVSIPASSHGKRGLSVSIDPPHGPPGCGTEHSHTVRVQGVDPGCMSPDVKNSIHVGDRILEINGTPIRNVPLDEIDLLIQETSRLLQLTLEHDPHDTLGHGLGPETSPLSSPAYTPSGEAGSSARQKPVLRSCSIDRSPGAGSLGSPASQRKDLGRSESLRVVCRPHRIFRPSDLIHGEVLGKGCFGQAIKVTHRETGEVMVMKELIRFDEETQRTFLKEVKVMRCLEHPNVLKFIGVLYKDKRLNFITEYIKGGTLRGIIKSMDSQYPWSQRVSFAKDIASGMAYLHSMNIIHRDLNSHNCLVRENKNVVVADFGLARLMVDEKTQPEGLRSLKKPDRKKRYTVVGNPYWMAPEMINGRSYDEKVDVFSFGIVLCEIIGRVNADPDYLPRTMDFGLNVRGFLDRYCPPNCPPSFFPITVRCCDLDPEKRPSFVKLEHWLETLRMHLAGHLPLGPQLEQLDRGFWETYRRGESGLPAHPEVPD

SMILES	% of control [1] [%]	% of control [2] [%]	% of control [3] [%]	% of control [4] [%]	% of control [5] [%]
CNC(=O)Nc1ccc(-c2nc(N3CC4CCC(C3)O4)c3cnn(C4CCC5(CC4)OCCO5)c3n2)cc1	95	–	–	–	–
O[C@H]1CC[C@H](Nc2ncc3nc(Nc4c(F)cc(F)cc4F)n([C@H]4CCOC4)c3n2)CC1	–	97	67	100	91
